Measured values from patent US9301923B2, “Lipids, lipid compositions, and methods of using them” (NOVARTIS AG, priority 2009, dated 2016).
Values joined by “and” are separate entries in the source; they are usually repeats but may differ in a detail not shown here. Equal entries are not always repeated. Where two headings read alike, the source gives them in different places.

Experiments:
[1] = pKa of the lipid by TNS fluorescence; type: physicochemical
Description: Unless explicitly indicated otherwise, all pKas referred to herein are measured in water at standard temperature and pressure. Also, unless otherwise indicated, all references to pKa are references to pKa measured using the following technique.
2 mM solution of lipid in ethanol are prepared by weighing the lipid and then dissolving in ethanol.
This is done with all eight buffers.
Priority: Column priority • Carriage Speed: Normal • Auto read: Off
The normalized fluorescence intensity vs. pH chart is then plotted in the Microsoft Excel software. The eight points are connected with a smooth line.
The pKa determined using this method is precise to about 0.2 pKa units.

Factor VII = Factor VII activity assay, in vivo liver delivery of FVII siRNA LNP; set-up: species or system mouse; conditions: for FVII inhib %: ~48 h
Description: Female CD-1 mice are received from Charles River Labs and maintained on standard lab chow and water ad libitum. The animals weigh approximately 25 grams at time of dosing. Formulated siRNA is administered as a single dose at various dose levels intravenously via the lateral tail vein calculated on a (mg siRNAs/kg) basis according to individual animal weights (10 ml/kg injection volume).
Formulated siRNAs are made up of double stranded siRNA sequences specific to a target mRNA sequence, and are in the form of lipid nucleotid particles (LNPs) containing cationic lipids, stealth lipids and neutral lipids, as provided in the Examples below. The siRNA construct for use in targeting the liver is specific to Factor VII. […] FVII siRNA duplex sequence
Formulated Factor VII siRNA is administered as a single dose at various dose levels intravenously via the lateral tail vein calculated on a mg siRNAs/kg basis according to individual animal weights (10 ml/kg injection volume). Approximately 48 h after injection, the mice are euthanized by CO2 inhalation followed by exsanguinations through the vena cava. […] In some cases, small pieces (˜50 mg) of liver are collected and snap frozen in liquid nitrogen for follow up mRNA quantitation.
An assay standard curve is prepared using pooled plasma aliquots from the vehicle control animals.

[2] = Particle size and PDI by dynamic light scattering (Malvern Zetasizer); type: physicochemical
Description: Unless indicated otherwise, all sizes referred to herein are the average sizes (diameters) of the fully formed nanoparticle, as measured by dynamic light scattering on a Malvern Zetasizer. The nanoparticle sample is diluted in phosphate buffered saline (PBS) so that the count rate is approximately 200-400 kcts. The data is presented as a weighted average of the intensity measure.
The acronym PDI stands for polydispersity index. Unless indicated otherwise, all PDIs referred to herein are the PDI of the fully formed nanoparticle, as measured by dynamic light scattering on a Malvern Zetasizer. The nanoparticle sample is diluted in phosphate buffered saline (PBS) so that the count rate is approximately 200-400 kcts.

[3] = dose 3 mg/kg siRNA i.v., lipid/DSPC/CHOL/AVANTI 880150P 50/28/18/4, N/P 3.43
[4] = dose 3 mg/kg siRNA i.v., lipid/no neutral lipid/CHOL/AVANTI 880150P 50/0/46/4, N/P 3.43
[5] = lipid/DSPC/CHOL/AVANTI 880150P 50/28/18/4, N/P 3.43
[6] = lipid/no neutral lipid/CHOL/AVANTI 880150P 50/0/46/4, N/P 3.43

Row | Compound | pKa ([1]; pKa) | FVII inhib % (Factor VII; dose 1 mg/kg siRNA i.v., lipid/no neutral lipid/CHOL/AVANTI 880150P 50/0/46/4, N/P 3.43) [%] | FVII inhib % (Factor VII; [3]) [%] | FVII inhib % (Factor VII; [4]) [%] | Final size (nm) [2, 5] [nm] | PDI [2, 5] | Final size (nm) [2, 6] | PDI [2, 6] | pKa [1] | in vivo Factor VII inhibition (Factor VII; formulation containing the cationic lipid, RNAi construct specific to Factor VII, liver) [%] | pKa ([1]; aqueous buffer series with fluorescent probe TNS, probe TNS, pKa of the cationic lipid, read-out: pKa)
1 | CCCCC/C=C\C/C=C\CCCCCCCCOCC(CN1CCCC[C@@H]1C)OCCOCCO[C@H]1CC[C@@]2(C)C(=CCC3C2CC[C@@]2(C)C3CC[C@@H]2[C@H](C)CCCC(C)C)C1 (stereo partly drawn) [E0019] | 6.75 | 33.7 | 76.7 | 85.2 | 143 | 0.065 | 90.5 nm and 180 nm | 0.164 and 0.19 | – | – | –
2 | CCCCC/C=C\C/C=C\CCCCCCCCOCC(CN1CC[C@@H]2CCCC[C@H]2C1)OCCOCCO[C@H]1CC[C@@]2(C)C(=CCC3C2CC[C@@]2(C)C3CC[C@@H]2[C@H](C)CCCC(C)C)C1 (stereo partly drawn) [E0020] | 6.08 | – | 62.4 | 51.4 | 83 | 0.138 | 81 nm | 0.084 | – | – | –
3 | CCCCC/C=C\C/C=C\CCCCCCCCOCC(CN1CC[C@@H]2CCCC[C@@H]2C1)OCCOCCO[C@H]1CC[C@@]2(C)C(=CCC3C2CC[C@@]2(C)C3CC[C@@H]2[C@H](C)CCCC(C)C)C1 (stereo partly drawn) [E0021] | 5.13 | – | 24.5 | 52.8 | 85 | 0.22 | 72 nm | 0.184 | – | – | –
4 | CCCCC/C=C\C/C=C\CCCCCCCCOCC(CN1CCCC(C)C1)OCCOCCO[C@H]1CC[C@@]2(C)C(=CCC3C2CC[C@@]2(C)C3CC[C@@H]2[C@H](C)CCCC(C)C)C1 (stereo partly drawn) [E0023] | 5.85 | – | 59.1 | 68 | 95 | 0.221 | 99 nm | 0.122 | – | – | –
5 | CCCCC/C=C\C/C=C\CCCCCCCCOCC(CN1CCCCC1)OCCCCO[C@H]1CC[C@@]2(C)C(=CCC3C2CC[C@@]2(C)C3CC[C@@H]2[C@H](C)CCCC(C)C)C1 (stereo partly drawn) [E0027] | 5.7 | – | 36.3 | 30.3 | 146 | 0.311 | 65 nm | 0.15 | 5.71 | 30.3 | –
6 | CCCCC/C=C\C/C=C\CCCCCCCCOCC(CN1CCOCC1)OCCCCO[C@H]1CC[C@@]2(C)C(=CCC3C2CC[C@@]2(C)C3CC[C@@H]2[C@H](C)CCCC(C)C)C1 (stereo partly drawn) [E0028] | 4.8 | – | 12.5 | 38.7 | 129 | 0.216 | 68 nm | 0.125 | – | – | –
7 | CCCCC/C=C\C/C=C\CCCCCCCCOCC(CN1Cc2ccccc2C1)OCCOCCO[C@H]1CC[C@@]2(C)C(=CCC3C2CC[C@@]2(C)C3CC[C@@H]2[C@H](C)CCCC(C)C)C1 (stereo partly drawn) [E0029] | 4.95 | – | 12.4 | −19.1 | 137 | 0.04 | 113 nm | 0.08 | – | – | –
8 | CCCCC/C=C\C/C=C\CCCCCCCCOCC(CN1CCOCCOCCOCC1)OCCOCCO[C@H]1CC[C@@]2(C)C(=CC[C@H]3[C@@H]4CC[C@H]([C@H](C)CCCC(C)C)[C@@]4(C)CC[C@@H]32)C1 (stereo partly drawn) [E0030] | 5.38 | – | – | 12.4 | – | – | 155 nm | 0.08 | – | – | –
9 | CCCCC/C=C\C/C=C\CCCCCCCCOCC(CN1CCSCC1)OCCOCCO[C@H]1CC[C@@]2(C)C(=CCC3C2CC[C@@]2(C)C3CC[C@@H]2[C@H](C)CCCC(C)C)C1 (stereo partly drawn) [E0031] | 4.8 | – | 36.7 | 27.1 | 108 | 0.23 | 65 nm | 0.11 | – | – | –
10 | CCCCC/C=C\C/C=C\CCCCCCCCOCC(CN1CC=CC1)OCCOCCO[C@H]1CC[C@@]2(C)C(=CCC3C2CC[C@@]2(C)C3CC[C@@H]2[C@H](C)CCCC(C)C)C1 (stereo partly drawn) [E0032] | 6.8 | – | 64.5 | 85.5 | 87 | 0.18 | 63 nm | 0.21 | – | – | –
11 | CCCCC/C=C\C/C=C\CCCCCCCCOCC(CN1CCC(OC)C1)OCCCCO[C@H]1CC[C@@]2(C)C(=CCC3C2CC[C@@]2(C)C3CC[C@@H]2[C@H](C)CCCC(C)C)C1 (stereo partly drawn) [E0035] | 5.93 | – | 22 | 66.8 | 103 | 0.2 | 79 nm | 0.21 | – | – | –
12 | CCCCC/C=C\C/C=C\CCCCCCCCOCC(CN1CCCCC1)OC(=O)CCC(=O)O[C@H]1CC[C@@]2(C)C(=CCC3C2CC[C@@]2(C)C3CC[C@@H]2[C@H](C)CCCC(C)C)C1 (stereo partly drawn) [E0036] | 5.74 | – | −47 | −23.1 | 122 | 0.12 | 76 nm | 0.24 | – | – | –
13 | CCCCC/C=C\C/C=C\CCCCCCCCOCC(CN1CCC(N(C)C)C1)OCCOCCO[C@H]1CC[C@@]2(C)C(=CC[C@H]3[C@@H]4CC[C@H]([C@H](C)CCCC(C)C)[C@@]4(C)CC[C@@H]32)C1 (stereo partly drawn) [E0039] | 5.88 | – | −6.7 | −5.4 | 113 | 0.15 | 94 nm | 0.06 | – | – | –
14 | CCCCC/C=C\C/C=C\CCCCCCCCOCC(CN1CC2CCCN(C(=O)OC(C)(C)C)C2C1)OCCOCCO[C@H]1CC[C@@]2(C)C(=CCC3C2CC[C@@]2(C)C3CC[C@@H]2[C@H](C)CCCC(C)C)C1 (stereo partly drawn) [E0041] | 4.8 | – | −7.4 | 17.6 | 95 | 0.37 | 93 nm | 0.21 | – | – | –
15 | CCCCC/C=C\C/C=C\CCCCCCCCOCC(CN1CCC(O[Si](C)(C)C(C)(C)C)C1)OCCOCCO[C@H]1CC[C@@]2(C)C(=CC[C@H]3[C@@H]4CC[C@H]([C@H](C)CCCC(C)C)[C@@]4(C)CC[C@@H]32)C1 (stereo partly drawn) [E0042] | – | – | 49.1 | 84.5 | 83 | 0.11 | 73 nm | 0.19 | – | – | 6.7
